# Experimental data from patent publication US6632668B2, “Monolayer sheet structure of primary hepatocytes obtained using a protein-phosphorylation inhibitor” (Japan as represented by the Secretary of Agency of …, priority 2000, dated 2003).
# Key:
# primary hepatocytes = assay: Monolayer formation of primary hepatocytes on collagen-coated plates, phase contrast microscope observation; type: cell-based, rat; details: 50 nM staurosporine, 4 h + 20 h standing culture
# Protocol: In order to isolate primary hepatocytes, rat livers were used and primary hepatocytes were isolated from the rat livers by ordinary methods, that was, by collagenase perfusion followed method and four subsequent low-speed centrifuge isolation. The hepatocytes were suspended in an animal cell culture medium (Williams' E medium) containing 10 nM Dexamethasone and 10% fetal bovine serum, and seeded at a cell concentration of 10×10^4 cell/cm^2 on 6-well cell culture plastic plates coated with type I collagen. For the samples to be treated, staurosporine was added to the medium to a final concentration of 50 nM. Next, they were subjected to standing culture for 4 hours at 37° C. in a CO2 incubator in the presence of 5% (v/v) CO2, and the medium was replaced with Williams' E medium containing 10 nM insulin, 10 nM dexamethasone and 0.7 μg/ml aprotinin. For the samples to be treated, staurosporine was again added to the medium to a final concentration of 50 nM. Finally, after the standing culture for 20 hours, the condition of the cells was observed through a phase contrast microscope.
# The results in FIG. 1 show clearly that in the case of the hepatocytes not treated with staurosporine, cell aggregates are formed, which comprises intermittently linked patch-like discontinuous monolayers of one to tens of cells.
# [1] = system: primary rat hepatocytes monolayer; assay: Dye permeation assay using transwell filters (bromphenol-blue, OD 655 nm); type: cell-based; details: staurosporine-treated monolayer on transwell filters
# Protocol: In parallel with Example 1 above, primary rat hepatocytes were seeded on transwell filters (3-micron pore polytetrafluoroethylene coated with type I collagen) suitable to 24-well cell culture plates, and differences in the tightness of the cell monolayer structure produced by staurosporine treatment were measured by a dye permeation assay.
# In the dye permeation assay using transwell filters shown in A of FIG. 2, primary hepatocytes were seeded on transwell filters installed in wells on 24-well cell culture plates, and after the monolayer thereof was formed, 20 μl of dye (0.25% bromphenol-blue dye) was added to the upper liquid layer (medium) on the filter. 50 μl samples were then taken with the passage of time from the lower liquid layer (medium) on the filter at a constant temperature of 37° C., and absorbancy thereof (OD 655 nm) was measured.
# In the results of B of FIG. 2, courses with the passage of time of dye permeation through hepatocytes layers formed by conventional methods on transwell filters are indicated by the white circles ◯, while courses of dye permeation through hepatocytes layers formed by the methods of this invention are indicated by black circles ●. […]
compound,measurement,setting,value
"CNC1CC2OC(C)(C1OC)n1c3ccccc3c3c4c(c5c6ccccc6n2c5c31)C(=O)NC4 (stereo not drawn) [staurosporine, [9S-(9a,10b,11b,13a)]-9,13-epoxy-2,3,10,11,12,13-hexahydro-10-methoxy-9-methyl-11-(methylamino)-1H,9H-diindolo[1,2,3-gh:3′,2′,1′-1m]pyrrolo[3,4-j][1,7]benzodiazonin-1-one]",cell aggregates formed (monolayer structure),primary hepatocytes; phase contrast microscope x200,a confluent continuous monolayer sheet of closely adjoining cells
same,adhesion (attachment) and extension (spreading) of hepatocytes on culture substrate,"primary hepatocytes; type I collagen coated plates, versus untreated hepatocytes",improved
same,permeation of dye through hepatocytes monolayer,"[1]; 0.25% bromphenol-blue, 37° C., versus untreated cell layers",much less permeation of dye than that of the untreated cell layers
same,tightness between cells,[1]; concluded from dye permeation,greatly enhanced
